Experimental data from patent US10550130B2, “Benzo-thiazolo-imidazole compounds and uses thereof” (KING SAUD UNIVERSITY, priority 2015, dated 2020).

What was measured:
Numb = assay: Immunofluorescence of Numb in MDA-MB-231 breast cancer cells; assay type: cell-based; conditions: MDA-MB-231 cells; 0.01, 0.1, 1 or 10 μM
Procedure: MDA-MB-231 breast cancer cells were treated either with vehicle (control) or with 0.01 μM, 0.1 μM, 1 μM or 10 μM final concentration of doxorubicin, taxotere or KSA-101696. Then, the cells were cytospun to glass slides by centrifugation at 800 rpm for 3 min. Slides were then air-dried overnight and 4% formaldehyde fixed for 10 min. For staining, the cell membrane was permeabilized with 0.5% triton-X (Sigma) followed by overnight incubation with primary antibodies (anti-Numb, Abcam) and (anti-intracellular Notch-1, Cell Signalling) at 1:100. Cells were washed and stained with AlexaFluor goat anti-rabbit IgG 488 (Invitrogenat) 1:400 for 30 minutes. 300 nM DAPI (Invitrogen, Carlsbad, Calif., USA) was added for 10 minutes to counterstain the nuclei. Slides were mounted and immunofluorescence was visualized using BD Pathway 855 microscope.
Numb exerts its functional role on cell fate decisions by antagonizing Notch signaling activities. The molecular mechanisms underlying this relationship appear to rely on the ubiquitination of the membrane bound Notch-1 receptor and the subsequent degradation of its NICD (Notch intracellular domain) following receptor activation.

MCF-7 = assay: Cell proliferation by 3H-thymidine uptake assay; assay type: cell-based; conditions: Homo sapiens, MCF7, 72 h, read-out: IC50, growth inhibition (3H-thymidine uptake)
Procedure: In vitro antitumor activity of the compound was assessed by ^3H-thymidine uptake. The cells were treated and they were about 60% confluent. Cells were seeded at 4×10^3 cells per well in a 96 well plate in DMEM containing 10% FBS for 24 h followed by treatment with control media (0.1% DMSO) or media containing different concentration of the compound incubated for 72 h at 37° C. in 5% CO2. Cells were labelled by addition of ^3H-thymidine (Amersham, Chiltern Hills, London, UK) at 1 μCi/well for 18 h before harvesting. ^3H-thymidine uptake was measured using a 1450 Micro Beta PLUS liquid scintillation counter (Wallac, Waltham, Mass., USA).
In another experiment, the in vitro antitumor activity of the compound was assessed by a 3H-thymidine uptake experiment. To this end, cells of the tumor cell lines MCF-7, SKBR3 and MDA-MB-468 were seeded at 4×10^3 cells per well in a 96 well plate in DMEM containing 10% FBS for 24 h followed by treatment with control media (0.1% DMSO) or media containing different concentration of the compound (5 μM, 10 μM, 20 μM, 40 μM or 80 μM final concentration of KSA-101696) and incubated for 72 h at 37° C. in 5% CO2. At about 60% confluency, cells were labelled by addition of 3H-thymidine (Amersham, Chiltern Hills, London, UK) at 1 μCi/well for 18 h before harvesting. 3H-thymidine uptake was measured using a 1450 Micro Beta PLUS liquid scintillation counter (Wallac, Waltham, Mass., USA).

[1] = system: colony forming SKBR3 cells; assay: 2-D colony formation assay; assay type: cell-based; conditions: 5000 viable cells from the ALDEFLUOR assay cells; 60 mm dish
Procedure: Cells were treated with different concentration of the compound or control medium containing 0.1% DMSO for 72 h. Cells were harvested and counted by using trypan blue to exclude the dead cells. A 5000 viable cells of treated and control cells were suspended in 3 ml DMEM supplemented with 10% FBS (Cambrex Bio Science) and seeded in a 60 mm tissue culture dish (Falcon, BD). The next day, a new fresh media was added and the cells were allowed to grow forming colonies for 14 d. The cells were then stained with methylene blue (Sigma-Aldrich, St. Louis, Mo., USA) and colonies containing more than 20 cells were counted.
Thus, from the same cells as used in the ALDEFLUOR assay, 5000 viable cells were seeded in a 60 mm tissue culture dish.

[2] = Apparent toxicity (body weight, general signs) in tumor-bearing mice; assay type: in vivo; conditions: 200 mg/kg intraperitoneal, three doses
Procedure: Nude mice (Jackson Laboratories, Bar Harbor, Me., USA) were injected with 4×10^6 cells of MDA-MB-468 in the mammary pad and tumor size was measured weekly using a caliper. When the tumor reached approximately 100 mm^3 diameter the mice were divided into a control group and a group treated with KSA-101696 200 mg/kg via intraperitoneal injection (three cycles every four days). Apparent toxicity as determined by body weight loss is recorded by measuring total body weight. Breeding, care and sacrifice of the animals were carried out in accordance with the protocols approved by the Animal Care and Use Committee of the King Faisal Specialist Hospital and Research Centre.
Because of the observed selective cytotoxic effect of compound KSA-101696 against cancer cells and the tolerance of normal cells and normal stem cells in vitro, a high dose of compound KSA-101696 (200 mg/kg) was used on mice.

[3] = Determination of LD50 value
Procedure: Swiss Webster Albino mice were housed in groups of 2 or 4 in elevated steel wire-mesh cages in a controlled room maintained at a temperature of 22±2° C., relative humidity of 50±10% and a 12 h light-dark cycle. Rodent diet chow (feed) provided by Grain Silos Flour Mills Organization, Riyadh, Saudi Arabia, and tap water for drinking were made available ad lib.
Male mice were divided into various groups (n=10 animals per group). Each group was administered a different dose of the respective compound via the intraperitoneal (i.p.) route. The dose range used was 100-5000 mg/kg.
During the observation periods there was a continuous record of any behavioral changes and clinical symptoms that caused by effects on the central and autonomic nervous systems, the respiratory and the cardiovascular systems or any other action on the gastrointestinal tract, the renal systems, eye, skin, skeletal muscles etc.
During the 72 hour observation period the number of animals that died in every group was recorded. The percentage of death calculated and converted to probits to calculate the LD50 value for each compound in mg/kg. The LD50 value reported in this study provided compounds in their liquid form in the provided concentrations.

T47D = assay: Annexin V binding by flow cytometry (apoptosis); assay type: cell-based; conditions: high Numb expression, FIG. 9B
Procedure: It is known that loss of phospholipid asymmetry of the plasma membrane is an early event of apoptosis. The annexin V binds to negatively charged phospholipids, like phosphatidylserine. During apoptosis, the cells react to annexin V once chromatin condenses but before the plasma membrane loses its ability to exclude propidium iodide (PI).
Annexin-V staining was performed by using Vybrant Apoptosis Assay Kit #2 (Molecular Probes) following the manufacturer's recommendations. Annexin-V stained cells were analyzed by flow cytometry, measuring the fluorescence emission between 515 nm to 545 nm.
This experiment was carried out with three breast cancer cell lines: MDA-MB-468, SKBR-3 and T47D. The MDA-MB-468 cell line represents the basal like breast cancer (which is a breast cancer subtype with a more aggressive clinical behavior). The SKBR-3 cell line represents Her-2 overexpressing breast cancer. […] The T47D cell line represents ER/PR positive breast cancer. Unlike MDA-MB-468 cells or SKBR-3 cells, T47D cells are highly differentiated cells and respond very well to hormonal therapy and chemotherapy.
In a next step, it was investigated whether there was a correlation between Numb protein expression and sensitivity of a cell line to the apoptotic effects of KSA-101696. Apoptotic cells were determined by Annexin-V staining as described in Example 1.

## COc1ccc(-c2csc3nc4ccccc4n23)cc1 [KSA-101696, 3-(4-methoxyphenyl)benzo[4,5]imidazo[2,1-b]thiazole]
Numb
  Numb expression (immunofluorescence microscopy): induced Numb
MCF-7
  IC50: ~5 µM
[1]
  inhibition of colony forming cells: showed the same activity in inhibition of colony forming cells
[2]
  signs of general toxicity: no convulsions, CNS stimulation, diarrhea, increased urination, miosis or mydriasis
  weight loss: no measurable weight loss
[3]; intraperitoneal
  Therapeutic ratio = LD50/ED50: 40
[3]; male, Swiss Webster Albino, mouse, in vivo, ip
  LD50 at 72 h: 2000 mg/kg
T47D
  apoptosis (Annexin-V) in relation to Numb expression: did not have such effects
